{"source": "patent US20190008973A1", "about": "“INTRALIPID-IODINE FOR IMAGING” (priority 2017, published 2019)", "key": {"[1]": {"tested_on": "PLA(2) and PLC", "settings": "rat, in vivo; cited from earlier work"}, "[2]": {"tested_on": "propofol-mediated hypotension", "settings": "cited from earlier work"}, "[3]": {"tested_on": "hippocampal slices", "settings": "cited from earlier work"}, "[4]": {"tested_on": "acetylcholinesterase (AChE) / neuronal degeneration", "settings": "cited from earlier work; for serum AChE: rat, in vivo"}, "[5]": {"tested_on": "free fatty acid efflux", "settings": "cited from earlier work; for I/R-evoked FFA efflux: 20-min ischemia, 40 min reperfusion"}, "[6]": {"tested_on": "post operative delirium", "test": "Lipid Emulsion Treatment of post operative delirium/POCD, 4 case reports", "format": "in vivo, human", "settings": "case 1, 60 min"}, "[7]": {"tested_on": "myocardial ischemia-reperfusion injury", "settings": "cited from earlier work"}, "[8]": {"tested_on": "fallopian tube and adnexal tissue", "settings": "cited from earlier work"}, "[9]": {"tested_on": "post ischaemic stunned myocardium", "settings": "dog, in vivo; cited from earlier work"}, "[10]": {"tested_on": "soft tissue anesthesia (STA)", "settings": "in vivo; cited from earlier work"}, "[11]": {"tested_on": "ischemia-reperfusion (IR) injury", "settings": "cited from earlier work"}, "[12]": {"molecular_target": "T1, mitochondrial ATPase (Homo sapiens, UniProt P06576+P25705)", "T1 construct": "mitochondrial ATPase prepared by the chloroform extraction method; from tissue; host or cells: mitochondria", "T1 sequence (P25705 44-553)": "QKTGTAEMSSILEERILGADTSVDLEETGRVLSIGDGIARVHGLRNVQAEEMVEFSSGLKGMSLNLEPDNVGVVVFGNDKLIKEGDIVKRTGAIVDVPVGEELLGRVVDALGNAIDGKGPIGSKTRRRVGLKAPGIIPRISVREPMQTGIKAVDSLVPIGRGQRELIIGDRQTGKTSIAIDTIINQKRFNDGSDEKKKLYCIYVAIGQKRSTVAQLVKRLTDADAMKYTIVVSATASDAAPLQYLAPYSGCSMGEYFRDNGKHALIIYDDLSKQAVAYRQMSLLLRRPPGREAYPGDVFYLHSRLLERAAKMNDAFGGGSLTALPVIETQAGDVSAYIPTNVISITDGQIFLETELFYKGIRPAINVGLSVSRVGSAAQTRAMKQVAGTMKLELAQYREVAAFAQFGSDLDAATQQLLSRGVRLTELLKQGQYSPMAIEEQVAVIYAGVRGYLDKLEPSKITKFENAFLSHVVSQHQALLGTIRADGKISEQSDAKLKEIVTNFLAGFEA", "T1 sequence (P06576 48-529)": "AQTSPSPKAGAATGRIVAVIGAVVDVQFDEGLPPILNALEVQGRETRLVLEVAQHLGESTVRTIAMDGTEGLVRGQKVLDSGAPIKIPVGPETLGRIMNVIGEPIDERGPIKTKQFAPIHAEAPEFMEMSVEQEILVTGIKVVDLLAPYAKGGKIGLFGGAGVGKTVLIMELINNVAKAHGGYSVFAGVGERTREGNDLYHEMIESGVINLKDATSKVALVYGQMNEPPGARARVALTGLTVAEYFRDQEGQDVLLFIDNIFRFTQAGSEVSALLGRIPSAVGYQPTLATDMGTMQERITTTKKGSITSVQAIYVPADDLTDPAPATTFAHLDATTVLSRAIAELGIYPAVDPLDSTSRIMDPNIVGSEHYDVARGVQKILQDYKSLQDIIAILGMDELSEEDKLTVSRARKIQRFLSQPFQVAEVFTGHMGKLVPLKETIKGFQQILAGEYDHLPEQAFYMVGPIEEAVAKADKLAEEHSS", "T1 sequence (P36542 26-298 partner)": "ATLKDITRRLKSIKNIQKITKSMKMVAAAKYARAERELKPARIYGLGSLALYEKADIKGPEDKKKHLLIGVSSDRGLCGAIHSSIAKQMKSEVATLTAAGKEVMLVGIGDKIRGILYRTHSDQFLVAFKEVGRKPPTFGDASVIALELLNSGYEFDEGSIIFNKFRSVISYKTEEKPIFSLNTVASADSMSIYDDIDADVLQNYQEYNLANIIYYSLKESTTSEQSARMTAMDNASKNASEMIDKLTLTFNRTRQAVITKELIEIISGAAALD", "T1 sequence (P30049 23-168 partner)": "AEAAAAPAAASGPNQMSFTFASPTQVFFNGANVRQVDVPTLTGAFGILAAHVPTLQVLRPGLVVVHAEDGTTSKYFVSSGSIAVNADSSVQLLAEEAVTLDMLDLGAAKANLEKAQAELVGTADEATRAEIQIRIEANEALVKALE", "T1 sequence (P56381 2-51 partner limits assumed)": "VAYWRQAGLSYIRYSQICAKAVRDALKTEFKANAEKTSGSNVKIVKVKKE", "settings": "cited from earlier work; for kind of inhibition: reciprocal plots"}, "[13]": {"tested_on": "lipid-dependent mitochondrial respiration (carnitine exchange)", "settings": "cited from earlier work"}, "[14]": {"tested_on": "brachial plexus", "settings": "150 μg clonidine or 200 μg epinephrine with 0.25% bupivacaine; cited from earlier work"}, "[15]": {"molecular_target": "T2, N-methyl-D-aspartate receptor channels (Mus musculus, UniProt P35438)", "T2 construct": "cultured cortical neurons from the mouse; endogenous in cells; host or cells: cultured mouse cortical neurons", "settings": "cited from earlier work"}, "[16]": {"tested_on": "total spinal anesthesia", "settings": "in vivo; cited from earlier work"}, "[17]": {"tested_on": "spinal cord ischemia and reperfusion", "settings": "intravenous; cited from earlier work"}, "[18]": {"tested_on": "traumatic brain injury", "settings": "cited from earlier work"}}, "note": "Where a name gives a salt, the structure may show the parent alone. Read-outs that look alike come from different tables or passages of the source.", "data": [{"compound": "4-bromophenylacyl bromide [BPB]", "values": [{"measurement": "FFA efflux during ischemia-reperfusion injury", "setting": "[1]", "result": "significantly inhibited FFA efflux"}]}, {"compound": "20% BSA", "values": [{"measurement": "effect on propofol induced cortical burst suppression", "setting": "[2]; EEG", "result": "−2+/−1%"}]}, {"compound": "CCCCC/C=C\\C/C=C\\C/C=C\\C/C=C\\CCCC(=O)O", "note": "[Arachidonic acid, 5,8,11,14-eicosateraenoic acid]", "values": [{"measurement": "protection from glutamate and H(2)O(2) injury", "setting": "[3]; 1-10 microM", "result": "dose dependently protected"}]}, {"compound": "CC(C)(c1ccc(OCC2CO2)cc1)c1ccc(OCC2CO2)cc1", "note": "(stereo not drawn) [BADGE, bisphenol A diglycidyl ether]", "values": [{"measurement": "effect on neuroprotection by arachidonic acid", "setting": "[3]", "result": "completely abolished"}]}, {"compound": "O=C1O/C(=C/Br)CCC1c1cccc2ccccc12", "note": "(stereo not drawn) [BEL, bromoenol lactone]", "values": [{"measurement": "FFA efflux during ischemia-reperfusion injury", "setting": "[1]", "result": "had only minimal effects on FFA efflux"}]}, {"compound": "O=C(/C=C/c1ccc(O)c(O)c1)OCCc1ccccc1", "note": "[CAPE, caffeic acid phenethyl ester]", "values": [{"measurement": "neuronal degeneration", "setting": "[4]; histologic examination", "result": "significant effect on protection of neuronal degeneration"}, {"measurement": "serum AChE", "setting": "[4]", "result": "inhibited AChE"}]}, {"compound": "C[C@@H]1C[C@@H]([C@H](O)CC2CC(=O)NC(=O)C2)C(=O)[C@@H](C)C1", "note": "[CHX, cycloheximide]", "values": [{"measurement": "effect on neuroprotection by arachidonic acid", "setting": "[3]; BADGE 100 microM, CHX 30 microM", "result": "completely abolished"}]}, {"compound": "O=C1CN(/N=C/c2ccc(-c3ccc([N+](=O)[O-])cc3)o2)C(O)=N1", "note": "[Dantrolene]", "values": [{"measurement": "I/R-evoked FFA efflux", "setting": "[5]", "result": "significantly inhibited I/R-evoked release of docosahexaenoic, arachidonic, linoleic and oleic acids"}]}, {"compound": "O=C(CCCN1CCC(O)(c2ccc(Cl)cc2)CC1)c1ccc(F)cc1", "note": "[Haloperidol]", "values": [{"measurement": "agitation after conventional sedatives", "setting": "[6]", "result": "had not improved"}]}, {"compound": "FC(F)OC(Cl)C(F)(F)F", "note": "(stereo not drawn) [IS, isoflurane]", "values": [{"measurement": "plasma lactate dehydrogenase", "setting": "[7]; 3 h after reperfusion, group C 676+/−82", "result": "456+/−58 U/L"}, {"measurement": "plasma creatine kinase", "setting": "[7]; 3 h after reperfusion, group C 2373+/−529", "result": "1725+/−230 U/L"}, {"measurement": "myocardial infarct size 3 h after reperfusion", "setting": "[7]; group C 39%+/−6%", "result": 20, "unit": "%+/−8%"}]}, {"compound": "CNC(=O)c1c(I)c(NC(C)=O)c(I)c(C(=O)O)c1I.CNC[C@H](O)[C@@H](O)[C@H](O)[C@H](O)CO", "note": "[Iothalamate meglumine 60%, iothalamate meglumine]", "values": [{"measurement": "pathologic response in tube or peritoneal cavity", "setting": "[8]; rabbit, in vivo", "result": "mild inflammatory infiltrate, mucosal edema, giant cell reaction, and periovarian adhesions"}]}, {"compound": "CC(=O)N(CC(O)CO)c1c(I)c(C(=O)NCCO)c(I)c(C(=O)NCC(O)CO)c1I", "note": "(stereo not drawn) [Ioxilan, ioxilan]", "values": [{"measurement": "pathologic response in tube or peritoneal cavity", "setting": "[8]; histology", "result": "no pathologic response"}]}, {"compound": "N[C@H](C(=O)O)c1ccc(O)cc1", "note": "[Oxfenicine, oxfenicine]", "values": [{"measurement": "effect of pretreatment on benefit of Intralipid", "setting": "[9]", "result": "completely abolished"}]}, {"compound": "Cc1ccc(N(CC2=NCCN2)c2cccc(O)c2)cc1", "note": "[PM (OraVerse), phentolamine mesylate]", "values": [{"measurement": "duration of residual STA", "setting": "[10]", "result": "significantly decrease the duration of residual STA"}, {"measurement": "safety outcomes in school-based dental clinic", "setting": "[10]", "result": "improve safety outcomes"}]}, {"compound": "Cn1cc(C2=C(c3ccc(Cl)cc3Cl)C(=O)NC2=O)c2ccccc21", "note": "[SB216763]", "values": [{"measurement": "cardioprotection in sham-operated hearts exposed to IR", "setting": "[11]; 1% ILP 15 min", "result": "conferred cardioprotection"}, {"measurement": "cardioprotection in hypertrophied myocardium", "setting": "[11]", "result": "failed to exert cardioprotection"}]}, {"compound": "C/C=C(/C)C(=O)O[C@H]1C(C)=C2[C@H]([C@@H]1OC(=O)CCCCCCC)[C@@](C)(OC(C)=O)C[C@H](OC(=O)CCC)[C@@]1(O)[C@H]2OC(=O)[C@@]1(C)O", "note": "[Thapsigargin]", "values": [{"measurement": "FFA efflux in the absence of ischemia", "setting": "[5]; rat, in vivo", "result": "elicited significant elevations in the efflux of myristic, arachidonic and linoleic acids"}]}, {"compound": "COc1ccc2c(c1)CC[C@@H]1[C@@H]2CC[C@]2(C)[C@@H](NCCCCCCN3C(=O)C=CC3=O)CC[C@@H]12", "note": "[U73122]", "values": [{"measurement": "FFA efflux during ischemia-reperfusion injury", "setting": "[1]", "result": "had no observed effect"}]}, {"compound": "C1CCC[C@H]2CCCN3CC[C@@H](CCCCCC[C@@H]4CCCN5CC[C@@H](CC1)O[C@@H]45)O[C@@H]23", "note": "[Xestospongin C]", "values": [{"measurement": "I/R-evoked FFA efflux", "setting": "[5]", "result": "failed to affect I/R-evoked FFA efflux"}]}, {"compound": "CCOC(=O)c1ccc(N)cc1", "note": "[benzocaine]", "values": [{"measurement": "inhibition of the enzyme", "setting": "[12]", "result": "inhibits the enzyme at all pH values"}]}, {"compound": "CN1[C@H]2CC[C@@H]1[C@@H](C(=O)O)[C@@H](OC(=O)c1ccccc1)C2", "note": "[benzoylecgonine]", "values": [{"measurement": "lipid-dependent mitochondrial respiration", "setting": "[13]", "result": "not"}]}, {"compound": "C[N+](C)(C)CC[N+]1(C)Cc2c(Cl)c(Cl)c(Cl)c(Cl)c2C1", "note": "[chlorisondamine]", "values": [{"measurement": "lowering of MAP", "setting": "[2]; 2.5 mg/kg IV", "result": "56+/−3%"}]}, {"compound": "CN(C)CCCN1c2ccccc2Sc2ccc(Cl)cc21", "note": "[chlorpromazine]", "values": [{"measurement": "kind of inhibition", "setting": "[12]", "result": "non-competitive"}]}, {"compound": "CCOP(=S)(OCC)Oc1nc(Cl)c(Cl)cc1Cl", "note": "[chlorpyriphos, Chlorpyriphos]", "values": [{"measurement": "serum AChE", "setting": "[4]", "result": "inhibited AChE"}]}, {"compound": "Clc1cccc(Cl)c1N=C1NCCN1", "note": "[clonidine, clonidine hydrochloride]", "values": [{"measurement": "duration of block", "setting": "[14]", "result": "994.2 ± 34.2", "unit": "min"}]}, {"compound": "CCOC(=O)[C@@H]1C2CCC(C[C@@H]1OC(=O)c1ccccc1)N2C", "note": "(stereo partly drawn) [cocaethylene]", "values": [{"measurement": "lipid-dependent mitochondrial respiration", "setting": "[13]", "result": "inhibited"}]}, {"compound": "CCCCOc1cc(C(=O)NCCN(CC)CC)c2ccccc2n1", "note": "[dibucaine]", "values": [{"measurement": "kind of inhibition", "setting": "[12]", "result": "non-competitive"}]}, {"compound": "CNC(=O)c1c(I)c(NC(C)=O)c(I)c(C(=O)O)c1I.CNC[C@H](O)[C@@H](O)[C@H](O)[C@H](O)CO", "note": "[iothalamate meglumine 30%, iothalamate meglumine]", "values": [{"measurement": "pathologic response in tube or peritoneal cavity", "setting": "[8]; rabbit, in vivo", "result": "no pathologic response"}]}, {"compound": "CNC1(c2ccccc2Cl)CCCCC1=O", "note": "(stereo not drawn) [ketamine]", "values": [{"measurement": "effect on emulsion-induced currents", "setting": "[15]", "result": "inhibited"}]}, {"compound": "CCN(CC)CC(=O)Nc1c(C)cccc1C", "note": "[lidocaine]", "values": [{"measurement": "kind of inhibition", "setting": "[12]", "result": "non-competitive"}, {"measurement": "further time to consciousness", "setting": "[16]", "result": 80, "unit": "min"}, {"measurement": "time to spontaneous respiration", "setting": "[16]", "result": 45, "unit": "min"}]}, {"compound": "Cc1ncc2n1-c1ccc(Cl)cc1C(c1ccccc1F)=NC2", "note": "[midazolam]", "values": [{"measurement": "agitation after conventional sedatives", "setting": "[6]", "result": "had not improved"}]}, {"compound": "CCCC(C)C1(CC)C(=O)NC(=S)NC1=O", "note": "(stereo not drawn) [thiopental]", "values": [{"measurement": "injured animals", "setting": "[17]", "result": 100, "unit": "%"}]}, {"compound": "CN1CCN(CCCN2c3ccccc3Sc3ccc(C(F)(F)F)cc32)CC1", "note": "[trifluoperazine]", "values": [{"measurement": "I/R-evoked FFA efflux", "setting": "[5]", "result": "very effective in suppressing ischemia/reperfusion evoked release of all six FFAs"}]}, {"compound": "DL-AP5", "values": [{"measurement": "effect on emulsion-induced currents", "setting": "[15]", "result": "inhibited"}]}, {"compound": "Ryanodine", "values": [{"measurement": "I/R-evoked FFA efflux", "setting": "[5]", "result": "significantly enhanced ischemia/reperfusion-elicited efflux of linoleic acid"}]}, {"compound": "conjugated linoleic acids [CLA]", "values": [{"measurement": "latency to find the hidden MWM platform", "setting": "[18]; CCI-injured, saline 30.7±5.5", "result": "66.8 ± 10.6", "unit": "s"}, {"measurement": "latency to find the hidden Morris Water Maze platform", "setting": "[18]; Sham, saline 8.8±1.7", "result": "40.3 ± 13.0", "unit": "s"}]}, {"compound": "ecgonine", "values": [{"measurement": "lipid-dependent mitochondrial respiration", "setting": "[13]", "result": "not"}]}, {"compound": "picrotoxin", "values": [{"measurement": "effect on emulsion-induced currents", "setting": "[15]", "result": "not affected"}]}]}
